Results published in US20250084039A1, “4-SUBSTITUTED AMINOISOQUINOLINE DERIVATIVES” (Purdue Research Foundation, priority 2016, published 2025).

Key:
MV4-11 [1] = assay: Anti-proliferative effects in leukemia panel; assay type: cell-based; conditions: for IC50: Homo sapiens, MV4-11
Procedure: Molm-14 cells were the kind gift of Dr. Mark Levis from Johns Hopkins University. […] Cell lines were grown and maintained according to ATCC recommendations.
(§1) Cell lines were seeded into 96-well plates the afternoon prior to treatment. Approximately 18 hours later, compounds were semi-serially diluted in dimethyl sulfoxide (DMSO) and then growth medium, and added to cells. Plates were incubated for 72 hours prior to addition of Alamar Blue (Life Technologies. Carlsbad, CA). Plates were read after 4 additional hours of incubation at 37° C. using a Bio-Tek Synergy HT plate reader (Bio-Tek, Winooski. VT). Data was analyzed and graphed using GraphPad Prism Software (Graphpad. La Jolla, CA).

FLT3 = FLT3 (Homo sapiens (Human), UniProt P36888); assay: Reaction Biology HotSpot kinase assay; assay type: biochemical; conditions: 500 nM compound; read-out: % inhibition of FLT3 activity
FLT3, sequence (P36888 27-993): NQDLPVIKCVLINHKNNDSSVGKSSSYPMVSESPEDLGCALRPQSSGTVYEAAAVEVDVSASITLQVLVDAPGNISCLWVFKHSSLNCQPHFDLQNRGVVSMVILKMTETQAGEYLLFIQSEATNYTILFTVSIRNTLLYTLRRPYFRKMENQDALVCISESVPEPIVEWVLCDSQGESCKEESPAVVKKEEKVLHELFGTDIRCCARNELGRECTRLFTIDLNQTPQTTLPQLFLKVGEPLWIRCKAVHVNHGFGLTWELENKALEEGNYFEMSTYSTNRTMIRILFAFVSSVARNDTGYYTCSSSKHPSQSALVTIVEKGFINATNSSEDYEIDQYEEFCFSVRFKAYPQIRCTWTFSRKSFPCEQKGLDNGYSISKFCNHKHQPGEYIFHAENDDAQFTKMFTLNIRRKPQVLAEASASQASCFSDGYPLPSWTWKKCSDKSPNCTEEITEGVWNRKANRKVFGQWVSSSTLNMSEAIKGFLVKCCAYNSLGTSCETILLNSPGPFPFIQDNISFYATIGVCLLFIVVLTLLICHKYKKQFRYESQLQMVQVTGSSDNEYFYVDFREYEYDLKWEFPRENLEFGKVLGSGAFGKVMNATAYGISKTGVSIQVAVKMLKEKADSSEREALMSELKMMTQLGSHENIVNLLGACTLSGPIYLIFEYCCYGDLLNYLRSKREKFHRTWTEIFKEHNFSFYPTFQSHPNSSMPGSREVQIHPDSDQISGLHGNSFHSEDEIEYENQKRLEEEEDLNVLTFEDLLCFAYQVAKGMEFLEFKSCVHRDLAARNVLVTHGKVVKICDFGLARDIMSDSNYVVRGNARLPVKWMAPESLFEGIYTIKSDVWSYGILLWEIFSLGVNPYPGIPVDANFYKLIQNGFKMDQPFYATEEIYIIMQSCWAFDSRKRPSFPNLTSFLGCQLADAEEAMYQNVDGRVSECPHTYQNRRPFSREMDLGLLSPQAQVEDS
Procedure: (§2) The Reaction Biology Corporation (www.reactionbiology.com, Malvern, PA) HotSpot assay platform was used to measure kinase/inhibitor interactions exactly as previously described. Kinase and substrate were mixed in a buffer containing 20 mM HEPES pH 7.5, 10 mM MgCl2, 1 mM EGTA, 0.02% Brij35, 0.02 mg/mL BSA, 0.1 mM Na3VO4, 2 mM DTT and 1% DMSO. Single-dose of compounds (500 nM) were then added to each reaction mixture. After 20-minute incubation. ATP (Sigma) and [γ-^33P] ATP (Perkin Elmer) were added at a final total concentration of 100 μM for addition 2 hours at room temperature, followed by spotting onto P81 ion exchange cellulose chromatography paper (Whatman, Inc.). […] Percent remaining kinase activity of a vehicle (DMSO) containing kinase reaction was calculated for each kinase/inhibitor pair using Prism 5 (GraphPad).
as §2, with “1” for “DTT”, “incubation,” for “incubation.”

MOLM14 = assay: Anti-proliferative effects in leukemia panel; assay type: cell-based; conditions: for IC50: Homo sapiens, MOLM-14
Procedure: Molm-14 cells were the kind gift of Dr. Mark Levis from Johns Hopkins University. THP-1, MV4-11, K-562 and MRC-5A cells were purchased from ATCC (ATCC, Manassas, VA). All cell lines were grown in 37° C. with 5% CO2 atmosphere with RPMI 1640 (Life technologies, Carlsbad. CA) supplemented with heat-inactivated 10% (V/V) fetal bovine serum. Cell lines were grown and maintained according to ATCC recommendations.
as §1

MV4-11 [2] = assay: Activity against AML cell line MV4-11 (CellTiter-Blue, 72 h); assay type: cell-based
Procedure: Cells were added to 96 well plates at 2000 cells per well for adherent lines and 4000 cells per well for suspension lines and kept in an incubator overnight. The following day the plates were treated with compounds to give rise to the final concentrations of; 100 μM, 10 μM, 5 μM 1 μM, 500 nM, 100 nM, 10 nM, […]. The plates were then stored in the incubator for 72 hours. On the third day the cells were assayed with 20 μL of CellTiter—Blue Cell Viability Assay per well and were incubated for 4 hours. After 4 hours' fluorescence intensity was taken on a plate reader: Excitation: 560/10 Emission: 590/10. IC50 analysis was performed on GraphPad Prism 7.

c-kit = c-kit (Homo sapiens (Human), UniProt P10721); assay: Reaction Biology HotSpot kinase assay; assay type: biochemical; conditions: 500 nM compound, 100 μM radiolabeled ATP
c-kit, sequence (P10721 26-976): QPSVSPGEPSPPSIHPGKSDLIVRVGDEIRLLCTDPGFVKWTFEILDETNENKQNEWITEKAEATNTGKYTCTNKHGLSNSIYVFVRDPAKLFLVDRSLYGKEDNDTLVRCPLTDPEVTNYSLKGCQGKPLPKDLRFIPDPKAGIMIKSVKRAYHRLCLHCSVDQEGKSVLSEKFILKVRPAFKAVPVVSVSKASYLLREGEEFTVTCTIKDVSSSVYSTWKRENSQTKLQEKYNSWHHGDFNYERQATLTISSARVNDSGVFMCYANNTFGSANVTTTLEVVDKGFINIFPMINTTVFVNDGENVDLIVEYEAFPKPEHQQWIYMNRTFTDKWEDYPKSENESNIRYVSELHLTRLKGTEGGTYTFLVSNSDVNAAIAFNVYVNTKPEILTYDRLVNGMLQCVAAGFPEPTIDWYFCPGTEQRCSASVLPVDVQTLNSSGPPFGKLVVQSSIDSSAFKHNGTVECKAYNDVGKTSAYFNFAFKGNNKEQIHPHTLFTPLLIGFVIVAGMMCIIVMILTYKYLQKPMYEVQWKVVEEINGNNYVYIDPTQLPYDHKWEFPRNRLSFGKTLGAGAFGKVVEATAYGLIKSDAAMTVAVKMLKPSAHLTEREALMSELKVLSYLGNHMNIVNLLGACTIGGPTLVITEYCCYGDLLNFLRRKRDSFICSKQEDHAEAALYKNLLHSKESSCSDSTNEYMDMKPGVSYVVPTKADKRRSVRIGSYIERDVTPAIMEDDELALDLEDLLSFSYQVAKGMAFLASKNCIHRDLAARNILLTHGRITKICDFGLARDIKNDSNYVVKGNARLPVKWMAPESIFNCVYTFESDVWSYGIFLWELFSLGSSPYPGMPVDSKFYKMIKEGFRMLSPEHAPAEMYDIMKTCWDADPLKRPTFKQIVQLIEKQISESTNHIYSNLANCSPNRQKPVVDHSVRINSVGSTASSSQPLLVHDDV
Procedure: as §2
as §2, with “1” for “DTT”, “incubation,” for “incubation.”

TRKC = TRKC (Homo sapiens (Human), UniProt Q16288); assay: Reaction Biology HotSpot kinase assay; assay type: biochemical; conditions: 500 nM compound, 100 μM radiolabeled ATP
TRKC, sequence (Q16288 32-839): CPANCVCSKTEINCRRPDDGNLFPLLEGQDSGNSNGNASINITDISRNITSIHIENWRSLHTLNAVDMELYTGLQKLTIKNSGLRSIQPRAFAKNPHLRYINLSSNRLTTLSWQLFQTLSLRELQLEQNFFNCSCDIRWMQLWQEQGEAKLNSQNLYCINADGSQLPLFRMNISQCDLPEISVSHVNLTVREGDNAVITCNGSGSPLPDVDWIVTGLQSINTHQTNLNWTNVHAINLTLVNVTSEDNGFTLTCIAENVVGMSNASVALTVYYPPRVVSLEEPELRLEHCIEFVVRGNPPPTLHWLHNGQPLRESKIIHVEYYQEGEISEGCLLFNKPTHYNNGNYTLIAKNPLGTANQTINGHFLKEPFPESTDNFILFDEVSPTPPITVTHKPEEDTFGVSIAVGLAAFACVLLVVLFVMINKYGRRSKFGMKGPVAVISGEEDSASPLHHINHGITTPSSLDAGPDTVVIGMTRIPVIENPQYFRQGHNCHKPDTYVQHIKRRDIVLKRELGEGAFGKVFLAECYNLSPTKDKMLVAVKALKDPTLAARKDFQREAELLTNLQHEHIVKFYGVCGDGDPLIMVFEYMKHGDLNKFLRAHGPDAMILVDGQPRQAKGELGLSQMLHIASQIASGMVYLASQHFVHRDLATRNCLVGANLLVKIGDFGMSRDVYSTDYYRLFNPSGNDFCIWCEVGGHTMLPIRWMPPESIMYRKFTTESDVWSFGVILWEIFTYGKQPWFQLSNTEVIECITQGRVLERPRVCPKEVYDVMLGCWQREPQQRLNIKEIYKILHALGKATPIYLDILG
Procedure: as §2
as §2, with “1” for “DTT”, “incubation,” for “incubation.”

MV-4-11 = assay: Proliferation inhibition at single concentration (CellTiter-Blue); assay type: cell-based; conditions: 1 μM compound
HCT116 = assay: as above; assay type: cell-based; conditions: 1 μM compound
MCF-7 = assay: as above; assay type: cell-based; conditions: 1 μM compound
Procedure: (§3) Plates were then treated with compound diluted in dimethyl sulfoxide (DMSO) as well as a DMSO control the following day for 72 hours. After this time the plates were then treated with 10 μL of CellTiter-Blue Cell Viability Assay (Promega, Madison, WI) for 4 hours. Then the plates were read on a plate reader (Bio-Tek, Winooski, VT). Data was analyzed on Excel as a percent of the DMSO vehicle.
(§4) Antiproliferative activities against AML cell line, MV4-11 (a FLT3-driven cell line) and three other solid tumors (MCF7, breast, HCT116, colon and HeLa) have been investigated (Tables 6A and 6B and FIG. 10).

HeLa = assay: as above; assay type: cell-based; conditions: 1 μM compound
Procedure: as §3, §4

MV4-11 [3] = assay: IC50 proliferation assay (Alamar Blue, 72 h); assay type: cell-based; conditions: Homo sapiens, MV4-11, 72 h; read-out: IC50 (proliferation inhibition) Cell line - MV4-11
Procedure: as §1, with “IC50 proliferation assay—Cell” for “Cell”, “lines and primary cells” for “lines”, “Technologies,” for “Technologies.”, “Winooski,” for “Winooski.”, “(Graphpad,” for “(Graphpad.”, “Jolla.” for “Jolla,”
IC50 (proliferation inhibition) against leukemia cell lines MV4-11 and K562. […] MiaPaca-2 (Pancreatic cell line), HLY-1 (Lymphoma cell line), MV4-11 (AML, cell line) and K562 (CML cell line).

[4] = read-out: Anti-proliferative effects in leukemia panel (μM) MV4-11
[5] = Homo sapiens, MV4-11, 72 h, read-out: IC50 against MV4-11/uM
[6] = 72 h, read-out: IC50 against MV4-11/uM
[7] = FIG. 1, read-out: anticancer activities (IC50) against MV4-11

| IC50 (MV4-11 [2]; [6]) | Compound | IC50 (MV4-11 [1]; [4]) | IC50 (MOLM14) | inhibition at 0.5 µM (c-kit) | inhibition at 0.5 µM (TRKC) | Percent inhibition of proliferation MV-4-11 (MV-4-11) | Percent inhibition of proliferation HCT116 (HCT116) | Percent inhibition of proliferation MCF-7 (MCF-7) | Percent inhibition of proliferation HeLa (HeLa) | also measured |
| --- | --- | --- | --- | --- | --- | --- | --- | --- | --- | --- |
| 0.45 µM | COCCCNC(=O)c1ccc(C#Cc2c(N)ncc3ccc(Cl)cc23)cc1 [HSM1692] | – | – | – | – | 81% | 29% | 22% | 0% | IC50 (MV4-11 [2]; [7]): 0.45 µM |
| 0.061 µM | CN(CCCN1CCCCC1)C(=O)c1ccc(C#Cc2c(N)ncc3ccc(Cl)cc23)cc1 [HSN105] | – | – | – | – | 88% | 40% | 12% | 1% | – |
| 0.008 µM | Nc1ncc2ccc(Cl)cc2c1C#Cc1ccc(C(=O)N[C@H]2CC[C@H](N)CC2)cc1.O=C(O)C(F)(F)F [HSN129] | – | – | – | – | 99% | 29% | 37% | 22% | – |
| 0.033 µM | Nc1ncc2ccc(Cl)cc2c1C#Cc1ccc(C(=O)N2CCC(N3CCCCC3)CC2)cc1 [HSN135] | – | – | – | – | 100% | 21% | 35% | 0% | – |
| 0.095 µM | Nc1ccc(CCNC(=O)c2ccc(C#Cc3c(N)ncc4ccc(Cl)cc34)cc2)cc1 [HSN136] | – | – | – | – | 86% | 38% | 33% | 0% | – |
| 0.006 µM | Nc1ncc2ccc(Cl)cc2c1C#Cc1ccc(C(=O)NCCN2CCCCC2)cc1 [HSN137] | – | – | – | – | 99% | 60% | 74% | 20% | – |

More lines, now with the values behind:

| Compound | IC50 (MV4-11 [2]; [6]) | IC50 (MV4-11 [1]; [4]) | IC50 (MOLM14) | inhibition at 0.5 µM (c-kit) | inhibition at 0.5 µM (TRKC) | Percent inhibition of proliferation MV-4-11 (MV-4-11) | Percent inhibition of proliferation HCT116 (HCT116) | Percent inhibition of proliferation MCF-7 (MCF-7) | Percent inhibition of proliferation HeLa (HeLa) | also measured |
| --- | --- | --- | --- | --- | --- | --- | --- | --- | --- | --- |
| CC1(COc2ccc3c(c2)ncn3-c2ccc3cccc(N4CCC(N)CC4)c3n2)COC1 [Crenolanib, reference compound] | – | 0.005 ± 0.001 µM | 0.004 µM | – | – | – | – | – | – | IC50 (MV4-11 [1]; read-out: anti-proliferative IC50): 0.005 µM; inhibition at 0.5 µM (FLT3): 99% |
| N#Cc1ccc(C#Cc2c(N)ncc3ccc(Cl)cc23)cc1 [HSM1611, 4-((3-amino-6-chloroisoquinolin-4-yl)ethynyl)benzonitrile] | – | > 5 µM | > 5 µM | 63% | 16% | – | – | – | – | anti-proliferative activity in words, MV4-11 / AML cell lines (MV4-11 [1]): ineffective; IC50 (MV4-11 [2]; [5]): 0.84 µM; anti-proliferative activity in words, MOLM-14 (MOLM14): ineffective |
| CN(C)CCCNC(=O)c1cccc(C#Cc2c(N)ncc3ccc(Cl)cc23)c1 [HSM1688] | 0.25 µM | – | – | – | – | 74% | 43% | 33% | 64% | IC50 (MV4-11 [2]; [7]): 0.25 µM |
| Nc1ncc2ccc(Cl)cc2c1C#Cc1ccc(C2=NC(C3CC3)CN2)cc1 (centres unmarked) [HSM1703] | – | 0.3 ± 0.2 µM | 0.1 µM | 60% | 49% | – | – | – | – | – |
| Nc1ncc2ccc(Cl)cc2c1C#Cc1ccccc1C(=O)NCCCN1CCCCC1 [HSM1717] | 0.05 µM | – | – | – | – | 82% | 33% | 76% | 2% | – |
| Nc1ncc2ccc(Cl)cc2c1C#Cc1ccc(C2=NCCN2CCN2CCCCC2)cc1 [HSM1721] | – | 0.08 ± 0.02 µM | 0.3 µM | 80% | 52% | – | – | – | – | IC50 (MV4-11 [2]; [5]): 0.015 µM |
| CC1(C)CNC(c2ccc(C#Cc3c(N)ncc4ccc(Cl)cc34)cc2)=N1 [HSM1743] | – | 0.07 ± 0.02 µM | 0.3 µM | 78% | 44% | – | – | – | – | – |
| Nc1ncc2[nH]ccc2c1C#Cc1ccc(C2=NCCN2)cc1 [HSM1781] | – | > 5 µM | > 5 µM | – | – | – | – | – | – | anti-proliferative activity in words, MV4-11 / AML cell lines (MV4-11 [1]): ineffective |
| Nc1ncc(C#Cc2ccc(C3=NCCN3)cc2)c2ccccc12 [HSM1795, 4-((4-(4,5-dihydro-1H-imidazol-2-yl)phenyl)ethynyl)isoquinolin-1-amine] | – | – | – | – | – | – | – | – | – | IC50 (MV4-11 [3]): 100 nM |
| Nc1nnc2ccccc2c1C#Cc1ccc(C2=NCCN2)cc1 [HSM1796] | – | > 5 µM | > 5 µM | 3% | 7% | – | – | – | – | anti-proliferative activity in words, MV4-11 / AML cell lines (MV4-11 [1]): ineffective |
| Nc1nccc(Cl)c1C#Cc1ccc(C2=NCCN2)cc1 [HSM1798] | – | > 5 µM | > 5 µM | 15% | 11% | – | – | – | – | anti-proliferative activity in words, MV4-11 / AML cell lines (MV4-11 [1]): ineffective |
| C(#Cc1cncc2ccccc12)c1ccc(C2=NCCN2)cc1 [HSM1813] | – | > 5 µM | > 5 µM | 39% | 17% | – | – | – | – | anti-proliferative activity in words, MV4-11 / AML cell lines (MV4-11 [1]): not a potent inhibitor |
| N=C(NO)c1cccc(C#Cc2c(N)ncc3ccc(Cl)cc23)c1 [HSM1819] | – | 0.02 ± 0.01 µM | 0.06 µM | 82% | 80% | – | – | – | – | anti-proliferative activity in words, MV4-11 / AML cell lines (MV4-11 [1]): very potent |
| N=C(NO)c1ccc(C#Cc2c(N)ncc3ccc(Cl)cc23)cc1 [HSM1820] | – | 0.04 ± 0.01 µM | 0.05 µM | 86% | 74% | – | – | – | – | – |
| CC(C)(C)c1cc(NC(=O)Nc2ccc(-c3cn4c(n3)sc3cc(OCCN5CCOCC5)ccc34)cc2)no1 [Quizartinib, quizartinib, reference compound] | – | 0.001 ± 0.001 µM | 0.001 ± 0.001 µM | – | – | – | – | – | – | – |
| (E)-4-(2-(3-amino-6-chloroisoquinolin-4-yl)vinyl)-N-hydroxybenzimidamide [HSM1859] | – | – | – | – | – | – | – | – | – | % inhibition of c-Kit (c-kit): 62%; % inhibition of TrkC (TRKC): 42% |
